{"source": "paper PMC4926499", "about": "“TSPO Ligand-Methotrexate Prodrug Conjugates: Design, Synthesis, and Biological Evaluation” (International Journal of Molecular Sciences, 2016)", "key": {"[1]": {"test": "Chemical stability in 50 mM phosphate buffer pH 7.4 at 37 °C", "type": "physicochemical", "details": "0.05 M phosphate buffer pH 7.4, 37 °C; read-out: t1/2 (h) PBS (converted)", "experimental": "(§1) The chemical stability of the TSPO-ligand MTX conjugates 3 and 4 was evaluated in 50 mM phosphate buffer solution at pH 7.4 and 37 °C; the physiological stability was also determined using a dilute rat serum solution (50% v/v) at 37 °C. The aim of this work is the synthesis of TSPO ligand-MTX conjugates in order to improve the plasma stability and having less side effects than MTX. In addition TSPO ligand-MTX conjugates could enhance the transport across BBB and due a tumor targeting effect for the TSPO moiety, might selectively deliver the antineoplastic agent to brain tumors and prolong its efficacy. The TSPO-ligand MTX conjugates 3 and 4 are stable in buffer solution at pH 7.4 and enough stable in physiological medium with their half-lives exceeding 3 h. […] In addition, CB86 (m/z = 407, [M + Na]^+) (Figure 1), most likely originating from the degradation of ligand 2, as previously shown, could be detected. Other products arising from the further degradation of the anticancer drug were found.\nTSPO ligand-MTX conjugates 3 and 4 chemical stabilities were studied at pH 7.4 in 0.05 M phosphate buffer at 37 °C. […] At appropriate time intervals, aliquots of 100 µL of each sample were removed, filtered through cellulose acetate membranes (0.22 µm, Advantec MFS, Pleasanton, CA, USA), and then 20 µL of filtrates were immediately analyzed by HPLC. […]"}, "[2]": {"test": "Stability in diluted rat serum solution (50% v/v) at 37 °C", "type": "in vitro ADME", "details": "diluted rat serum (50% v/v), pH 7.4, 50% v/v rat serum, pH 7.4, 37 °C, read-out: t1/2 (h) Diluted Rat Serum", "experimental": "as §1\nThe TSPO ligand-MTX conjugates 3 and 4 stabilities in physiological medium were studied at 37 °C in 0.05 M phosphate buffer and 0.14 M NaCl at pH 7.4, containing 50% v/v of rat serum. […] Samples were centrifuged at 3500 rpm for 10 min, and the supernatant was removed, filtered through cellulose acetate membranes (0.22 µm, Advantec MFS) and then 20 µL of filtrates were immediately analyzed by HPLC. […]"}, "TSPO [3]": {"target": "T1, TSPO (Rattus norvegicus, UniProt P16257)", "T1 construct": "from tissue; host or cells: rat cerebral cortex membranes", "test": "Radioligand binding assay, displacement of [3H]-PK 11195 from rat cerebral cortex membranes", "details": "for SI (selectivity index): IC50(CBR)/IC50(TSPO); for IC50: rat cerebral cortex membranes, [3H]-PK 11195", "experimental": "(§2) The IC50 values were determined from the displacement curves using the reference compound [^3H]-PK 11195, for TSPO, or [^3H]flunitrazepam for CBR. The data obtained, expressed as IC50 values, as well as the ratios between CBR and TSPO affinity, respectively (Selectivity Index, SI), as a measure of the in vitro selectivity, are shown in Table 2 and were compared with unlabeled TSPO selective ligand PK 11195, and with CBR selective ligand flunitrazepam. […] Moreover, the SI of TSPO-ligand MTX conjugate 3 is similar to the reference compound PK 11195. […] Thus, the binding quantification of TSPO ligands is confounded by the expression of different forms of TSPO and to assess the potentially therapeutic use of TSPO-ligands would be appropriate to genetically test the patients.\n(§3) Binding assays ([^3H]Flunitrazepam and [^3H]PK 11195 bindings) were assessed to membrane preparations from rat cerebral cortex as described previously. The IC50 values (GraphPad Prism software, (La Jolla, CA, USA)) were determined from the displacement curves using the reference compound [^3H]-PK11195, for TSPO or [^3H]flunitrazepam, for CBR, respectively. The selectivity index (SI) was calculated from: IC50(CBR)/IC50(TSPO)."}, "[4]": {"target": "central-type benzodiazepine receptor (CBR)", "test": "Radioligand binding assay, displacement of [3H]flunitrazepam from rat cerebral cortex membranes", "experimental": "as §2, §3"}, "C6 rat glioma cells": {"system": "C6 rat glioma cells", "test": "Cytotoxicity by MTT assay, C6 cells", "type": "cell-based", "details": "Glioma cell, 24 h exposure", "description": "(§4) These cellular lines were selected for their high expression level of TSPO and, therefore, have been used extensively for in vitro experiments on the brain tumor models and for cytotoxicity studies relating to anticancer drugs, as well as TSPO-ligands and its nanodevices. The tested compounds show high cytotoxicity on all cell lines, especially for C6 rat glioma cells. In particular, the TSPO-ligand MTX α-conjugates 3 appears to be the most cytotoxic displaying a lower IC50 value compared to MTX on C6 cells.\n(§5) Rat RG2 and C6 glioma cells were grown in DMEM (Dulbecco’s modified Eagle’s medium, Sigma Aldrich, Milano, Italy) nutrient supplemented with 10% heat inactivated FBS (Fetal Bovine Serum, Sigma Aldrich), 2 mM, L-glutamine, penicillin (100 U/mL), and streptomycin (100 µg/mL) at 37 °C in a humidified 5% CO2 atmosphere. Cells were fed every day and seeded in 96-well plates at a density of ~5000 cells/well for assays. MTX and TSPO ligand-MTX conjugates were dissolved in DMSO at initial concentrations of 1000 µg/mL and then diluted with medium. Cells were exposed to different concentrations of compounds (0.1–1000 nM) for 24 h.\n(§6) Cell viability was evaluated by MTT (3-(4,5-dimethylthiazol-2-yl)-2,5-diphenyltetrazolium bromide) assay as previously described. In brief, 10 µL of MTT (5.0 mg/mL) was added to the cells and cultured at 37 °C, in a humidified 5% CO2 atmosphere for 2 h. After this period, medium was removed and the cells were replaced with 150 µL of a DMSO/ethanol (1:1) solution per well. The absorbance of the individual well was measured by microplate reader (Wallac Victor3, 1420 Multilabel Counter, Perkin-Elmer (Waltham, MA, USA). All experiments were repeated three times and each compound’s concentration was tested in triplicate."}, "RG2 rat glioma cells": {"system": "RG2 rat glioma cells", "test": "Cytotoxicity by MTT assay, RG2 cells", "type": "cell-based", "details": "Glioma cell, 24 h exposure", "description": "as §4, §5, §6"}, "SF126 human glioma cells": {"system": "SF126 human glioma cells", "test": "Cytotoxicity by MTT assay, SF126 cells", "type": "cell-based", "details": "SF-126"}, "SF188 human glioma cells": {"system": "SF188 human glioma cells", "test": "Cytotoxicity by MTT assay, SF188 cells", "type": "cell-based", "details": "SF-188"}, "[5]": {"test": "Transport across MDCKII-MDR1 cell monolayer", "details": "dog, MDCK-MDR1, pH 7.4", "quoted_text": "(§7) The apparent permeability coefficient (Papp) of each compound was calculated on the basis of the amounts permeated through MDCKII-MDR1 monolayer by the equation: Papp=VA dC/A[D]in dt where VA (dC/dt) is the linear appearance rate of mass in the receiver solution; A is the filter/cell surface area and [D]in is the initial tested compound concentration in the apical (AP) chamber. The Papp values were evaluated in apical to basolateral direction. […] On an experimental day, the integrity of the cell monolayer was assessed by measuring the transendothelial electrical resistance (TEER) value.\n(§8) The bi-directional transport study was conducted as previously reported [15]. A Transwell® 12 plate consisting of differentiated MDCKII-MDR1cells plated on polyester microporous filters (12 mm diameter, 0.4 µm pore size, 0.5 mL apical volume, 1.5 mL basolateral volume) at a density of 100,000 cells/cm^2, was used for the permeability assay. The integrity of the cell monolayer was assessed by measuring the TEER value in each well, using an epithelial volt-ohm meter (EVOM). Cell monolayers with TEER 120–140 Ohm/cm^2 were used. […] Fresh assay medium was placed in the receiver compartment. […] After incubation time of 2 h, samples were removed from the apical side of the monolayer and then analyzed. […] All experiments were repeated three times and each compound was tested in triplicate."}, "in vitro": {"test": "in vitro", "details": "dog, MDCK-MDR1, pH 7.4", "quoted_text": "as §7, §8"}, "[6]": {"target": "central-type benzodiazepine receptor (CBR)", "details": "rat cerebral cortex membranes, [3H]flunitrazepam; cited from earlier work"}, "TSPO [7]": {"target": "T1, TSPO", "details": "cited from earlier work"}}, "note": "Where two headings read alike, the source gives them in different places.", "data": [{"smiles": "CCCN(CCC)C(=O)Cc1c(-c2ccc(Cl)cc2)nc2c(NC(=O)CNC(=O)CCC(NC(=O)c3ccc(N(C)Cc4cnc5nc(N)nc(N)c5n4)cc3)C(=O)O)cccn12", "note": "(centres unmarked) [Compound 4, 5-(2-(2-(4-Chlorophenyl)-3-(2-(dipropylamino)-2-oxoethyl)imidazo[1,2-a]pyridin-8-ylamino)-2-oxoethylamino)-2-(4-(((2,4-diaminopteridin-6-yl)methyl)(methyl)amino)benzamido)-5-oxopentanoic acid]", "values": [{"measurement": "half-life", "setting": "[1]", "value": "74 ± 12", "unit": "h"}, {"measurement": "half-life", "setting": "[2]", "value": "> 3", "unit": "h"}, {"measurement": "SI (selectivity index)", "setting": "TSPO [3]", "value": ">2.5 × 10^3"}, {"measurement": "IC50", "setting": "TSPO [3]", "value": "40.3 ± 3.8", "unit": "nM"}, {"measurement": "IC50", "setting": "[4]", "value": "> 100000", "unit": "nM"}, {"measurement": "IC50", "setting": "C6 rat glioma cells", "value": "2.2 ± 0.6", "unit": "nM"}, {"measurement": "IC50", "setting": "RG2 rat glioma cells", "value": "15.2 ± 2.9", "unit": "nM"}, {"measurement": "IC50", "setting": "SF126 human glioma cells", "value": "25 ± 2.6", "unit": "nM"}, {"measurement": "IC50", "setting": "SF188 human glioma cells", "value": "18.2 ± 2", "unit": "nM"}, {"measurement": "melting point", "value": "190 °C (dec.)"}, {"measurement": "Papp at 2 h, 75 µM", "setting": "[5]", "value": 3.32, "unit": "×10⁻⁶ cm/s"}]}, {"smiles": "CN(Cc1cnc2nc(N)nc(N)c2n1)c1ccc(C(=O)N[C@@H](CCC(=O)O)C(=O)O)cc1", "note": "[MTX, 2,4-diamino-N^10-methylpteroylglutamic acid, reference compound]", "values": [{"measurement": "IC50", "setting": "C6 rat glioma cells", "value": "2.6 ± 0.8", "unit": "nM"}, {"measurement": "IC50", "setting": "RG2 rat glioma cells", "value": "3.8 ± 1.5", "unit": "nM"}, {"measurement": "IC50", "setting": "SF126 human glioma cells", "value": "1.2 ± 0.3", "unit": "nM"}, {"measurement": "IC50", "setting": "SF188 human glioma cells", "value": "1.2 ± 0.2", "unit": "nM"}, {"measurement": "Papp at 2 h, 75 µM", "setting": "in vitro", "value": 0.091, "unit": "×10⁻⁶ cm/s"}]}, {"smiles": "CN1C(=O)CN=C(c2ccccc2F)c2cc([N+](=O)[O-])ccc21", "note": "[Flunitrazepam]", "values": [{"measurement": "IC50", "setting": "[6]", "value": "5.1 ± 0.5", "unit": "nM"}]}, {"smiles": "CCC(C)N(C)C(=O)c1cc2ccccc2c(-c2ccccc2Cl)n1", "note": "(centres unmarked) [PK11195]", "values": [{"measurement": "IC50", "setting": "[6]", "value": "> 100000", "unit": "nM"}]}, {"smiles": "CCCN(CCC)C(=O)Cc1c(-c2ccc(Cl)cc2)nc2c(NC(=O)CNC(=O)C(CCC(=O)O)NC(=O)c3ccc(N(C)Cc4cnc5nc(N)nc(N)c5n4)cc3)cccn12", "note": "(centres unmarked) [Compound 3, 5-(2-(2-(4-Chlorophenyl)-3-(2-(dipropylamino)-2-oxoethyl)imidazo[1,2-a]pyridin-8-ylamino)-2-oxoethylamino)-4-(4-(((2,4-diaminopteridin-6-yl)methyl)(methyl)amino)benzamido)-5-oxopentanoic acid]", "values": [{"measurement": "half-life", "setting": "[1]", "value": "144 ± 25", "unit": "h"}, {"measurement": "half-life", "setting": "[2]", "value": "> 3", "unit": "h"}, {"measurement": "SI (selectivity index)", "setting": "TSPO [3]", "value": ">1.4 × 10^4"}, {"measurement": "IC50", "setting": "TSPO [3]", "value": "7.2 ± 2.1", "unit": "nM"}, {"measurement": "IC50", "setting": "[4]", "value": "> 100000", "unit": "nM"}, {"measurement": "IC50", "setting": "C6 rat glioma cells", "value": "1.2 ± 0.7", "unit": "nM"}, {"measurement": "IC50", "setting": "RG2 rat glioma cells", "value": "4.2 ± 3.2", "unit": "nM"}, {"measurement": "IC50", "setting": "SF126 human glioma cells", "value": "14.2 ± 4.2", "unit": "nM"}, {"measurement": "IC50", "setting": "SF188 human glioma cells", "value": "9.2 ± 3.4", "unit": "nM"}, {"measurement": "melting point", "value": "210 °C (dec.)"}, {"measurement": "Papp at 2 h, 75 µM", "setting": "[5]", "value": 3.65, "unit": "×10⁻⁶ cm/s"}]}, {"smiles": "CCCN(CCC)C(=O)Cc1c(-c2ccc(Cl)cc2)nc2c(NC(=O)CN)cccn12", "note": "[Compound 2, N,N-dipropyl-[2-(8-(2-aminoacetamido)-2-(4-chlorophenyl)imidazo[1,2-a]pyridin-3-yl)]acetamide]", "values": [{"measurement": "SI (selectivity index)", "setting": "TSPO [7]; IC50(CBR)/IC50(TSPO)", "value": ">4.1 × 10^3"}, {"measurement": "IC50", "setting": "TSPO [7]; read-out: IC50 (nM) TSPO Cortex, rat cerebral cortex membranes, [3H]-PK 11195", "value": "24 ± 4.2", "unit": "nM"}, {"measurement": "IC50", "setting": "[6]", "value": "> 100000", "unit": "nM"}]}]}
